Results as given in US20110092476A1, “Bicycloheteroaryl compounds as P2X7 modulators and uses thereof” (Renovis, Inc., priority 2006, published 2011).
Converted amounts (≈) assume the structure as drawn. Where two headings read alike, the source gives them in different places.

Tests used:
[1] = Determination of aqueous (kinetic) solubility; format: physicochemical; settings: aqueous buffer, kinetic from dmso stock, buffer pH 7.4
Procedure: The mixture was vortexed for 1 hour and equilibrated overnight at room temperature. The mixture was filtered through a saturated filter and the filtrate was analyzed by LC/MS/MS.
For the purpose of Table 5, solubility of each compound is expressed as follows: […]

[2] = Half-life in human liver microsomes (HLM); settings: pH 7.4
Procedure: Test compounds (1 μM) are incubated with 3.3 mM MgCl2 and 0.78 mg/mL HLM (HL101) in 100 mM potassium phosphate buffer (pH 7.4) at 37° C. on the 96-deep well plate. The reaction mixture is split into two groups, a non-P450 and a P450 group. NADPH is only added to the reaction mixture of the P450 group. An aliquot of samples of P450 group is collected at 0, 10, 30, and 60 min time point, where 0 min time point indicated the time when NADPH is added into the reaction mixture of P450 group. […] Collected aliquots are extracted with acetonitrile solution containing an internal standard. […] The compound concentration in supernatant is measured by LC/MS/MS system.
The half-life value is obtained by plotting the natural logarithm of the peak area ratio of compounds/internal standard versus time. The slope of the line of best fit through the points yields the rate of metabolism (k). This is converted to a half-life value using following equations:

[3] = biological target: T1, P2X7 receptor (Homo sapiens, UniProt Q99572); test: IL-1β release assay in differentiated THP-1 cells stimulated with BzATP (Example 9); format: cell-based; settings: BzATP 250 uM; for inhibition at 0.3 µM / inhibition at 0.1 µM: differentiated THP-1 cells, read-out: IL-1β % Inhib. @ 0.3 or 0.1 uM; for IC50: THP-1 cells, IL-1β by ELISA; for inhibition at 0.1 µM: 0.1 μM compound (symbols *)
T1 construct: host or cells: THP-1 cells differentiated with LPS and IFN-γ
T1 sequence (Q99572 1-595): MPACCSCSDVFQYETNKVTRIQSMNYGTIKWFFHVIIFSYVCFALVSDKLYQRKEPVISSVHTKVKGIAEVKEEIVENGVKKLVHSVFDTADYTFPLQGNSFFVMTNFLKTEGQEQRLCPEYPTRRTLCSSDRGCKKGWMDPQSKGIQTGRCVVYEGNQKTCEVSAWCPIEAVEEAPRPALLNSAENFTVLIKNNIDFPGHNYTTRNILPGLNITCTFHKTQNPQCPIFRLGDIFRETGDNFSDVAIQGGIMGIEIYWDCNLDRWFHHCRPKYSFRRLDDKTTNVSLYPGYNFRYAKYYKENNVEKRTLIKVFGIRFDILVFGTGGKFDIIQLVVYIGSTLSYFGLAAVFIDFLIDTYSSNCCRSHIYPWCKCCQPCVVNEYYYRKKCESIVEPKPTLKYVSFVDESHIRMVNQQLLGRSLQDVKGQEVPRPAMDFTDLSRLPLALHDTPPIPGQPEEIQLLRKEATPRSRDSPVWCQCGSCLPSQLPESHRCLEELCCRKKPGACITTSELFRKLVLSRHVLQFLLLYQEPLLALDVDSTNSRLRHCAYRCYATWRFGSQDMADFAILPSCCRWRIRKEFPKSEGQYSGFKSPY
How it was run: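 IC50 derived by four-parameter logistic fit of percent inhibition of IL-1β release (ELISA, background-adjusted). Release triggered by 45 min BzATP at 250 uM final after 30 min compound pretreatment of THP-1 cells previously differentiated 16 h (LPS, IFN-γ, 100 ng/mL each) and re-primed 2 h with LPS.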

| Compound | solubility [1] | inhibition at 0.3 µM ([3]; 0.3 μM compound, "+" symbols) | other results |
| --- | --- | --- | --- |
| NC(=O)[C@H](CO)n1ccc2c(NC(=O)Cc3ccc(Cl)c(C(F)(F)F)c3)cccc2c1=O [Compound 250, (S)-2-{5-[2-(4-Chloro-3-trifluoromethyl-phenyl)-acetylamino]-1-oxo-1H-isoquinolin-2-yl}-3-hydroxy-propionamide] | > 75 µM | > 76% | half-life at 1 μM [2]: 0.9 h |
| C[C@@H](C(=O)Nc1cccc2c(=O)n([C@@H](C)C(N)=O)ccc12)c1ccc(Cl)cc1 [Compound 266] | > 75 µM | > 76% |  |
| CC(C)[C@H](C(N)=O)n1ccc2c(NC(=O)[C@H](C)c3ccc(Cl)cc3)cccc2c1=O [Compound 284, (R)-2-{5-[(R)-2-(4-Chloro-phenyl)-propionylamino]-1-oxo-1H-isoquinolin-2-yl}-3-methyl-butyramide] | > 75 µM | > 76% |  |
| C[C@H](CO)n1ccc2c(NC(=O)Cc3ccc(Cl)c(Cl)c3)cccc2c1=O [Compound 333, 2-(3,4-Dichloro-phenyl)-N-[2-((R)-2-hydroxy-1-methyl-ethyl)-1-oxo-1,2-dihydro-isoquinolin-5-yl]-acetamide] | > 75 µM | > 76% |  |
| O=C(Cc1ccc(Cl)c(C(F)(F)F)c1)Nc1cccc2c(=O)n(C[C@@H]3CCCN3)ccc12 [Compound 232, 2-(4-Chloro-3-trifluoromethyl-phenyl)-N-(1-oxo-2-(S)-1-pyrrolidin-2-ylmethyl-1,2-dihydro-isoquinolin-5-yl)-acetamide] |  | > 76% | half-life at 1 μM [2]: 7.37 h |
| C[C@H](C(N)=O)n1ccc2c(NC(=O)[C@H](C)c3ccc(Cl)cc3)cccc2c1=O [Compound 262] | > 75 µM | > 76% |  |
| Cc1ccc2c(=O)n([C@H](C)CO)ccc2c1NC(=O)Cc1cccc(C(F)(F)F)c1F [Compound 395] | > 75 µM | > 76% | IC50 [3]: 9.44 nM |
| CC(C(=O)Nc1cccc2c(=O)n([C@H](C)C(N)=O)ccc12)c1cccc(C(F)(F)F)c1F (stereo partly drawn) [Compound 337] | < 25 µM | > 76% |  |
| C[C@H](CO)n1ccc2c(NC(=O)Cc3ccc(C(F)(F)F)cc3C(F)(F)F)cccc2c1=O [Compound 361] | > 75 µM | > 76% |  |
| C[C@@H](C(N)=O)n1ccc2c(NC(=O)Cc3ccc(Cl)cc3C(F)(F)F)cccc2c1=O [Compound 237, (S)-2-{5-[2-(4-Chloro-2-trifluoromethyl-phenyl)-acetylamino]-1-oxo-1H-isoquinolin-2-yl}-propionamide] | 26 to 50 µM (≈ 11.7 to 22.6 µg/mL) | > 76% |  |
| C[C@H](C(N)=O)n1ccc2c(NC(=O)Cc3ccc(F)c(Br)c3)cccc2c1=O [Compound 307] | < 25 µM | > 76% |  |
| NC(=O)Cn1ccc2c(NC(=O)Cc3ccc(Cl)c(C(F)(F)F)c3)cccc2c1=O [Compound 249, 2-{5-[2-(4-Chloro-3-trifluoromethyl-phenyl)-acetylamino]-1-oxo-1H-isoquinolin-2-yl}-acetamide] | < 25 µM | > 76% |  |
| CC(C)[C@H](C(N)=O)n1ccc2c(NC(=O)[C@@H](C)c3ccc(Cl)cc3)cccc2c1=O [Compound 283] | > 75 µM | > 76% |  |
| C[C@H](C(N)=O)n1ccc2c(NC(=O)Cc3ccc(F)c(Cl)c3)cccc2c1=O [Compound 301] | 26 to 50 µM (≈ 10.4 to 20.1 µg/mL) | > 76% |  |
| Cc1ccc2c(=O)n([C@H](C)CO)ccc2c1NC(=O)Cc1ccc(Cl)c(F)c1 [Compound 398] | > 75 µM |  | IC50 [3]: 5.38 nM; inhibition at 0.3 µM ([3]; "+" symbols = compound at 0.3 μM): > 76% |
| C[C@H](C(N)=O)n1ccc2c(NC(=O)Cc3ccc(Cl)c(F)c3)cccc2c1=O [Compound 300] | < 25 µM | > 76% |  |
| C[C@H](C(N)=O)n1ccc2c(NC(=O)Cc3ccc(C(F)(F)F)c(F)c3)cccc2c1=O [Compound 306] | < 25 µM | > 76% |  |
| Cc1ccc2c(=O)n([C@H](C)CO)ccc2c1NC(=O)Cc1ccc(C(F)(F)F)cc1 [Compound 397] | 51 to 75 µM (≈ 21.3 to 31.4 µg/mL) | > 76% | IC50 [3]: 65.1 nM |
| O=C(Cc1ccc(Cl)c(Cl)c1)Nc1cccc2c(=O)n(C(CO)CO)ccc12 [Compound 80] | > 75 µM |  | inhibition at 0.3 µM ([3]; 0.3 μM compound (symbols +)): > 76% |
| C[C@H](CO)n1ccc2c(NC(=O)[C@H](C)c3ccc(Cl)c(Cl)c3)cccc2c1=O [Compound 320] | 51 to 75 µM (≈ 21.4 to 31.4 µg/mL) | > 76% |  |

| Compound | solubility [1] | inhibition at 0.3 µM ([3]; 0.3 μM compound, "+" symbols) | other results |
| --- | --- | --- | --- |
| C[C@H](C(N)=O)n1ccc2c(NC(=O)Cc3ccc(F)c(C(F)(F)F)c3)cccc2c1=O [Compound 304] | < 25 µM | > 76% |  |
| O=C(Cc1ccc(C(F)(F)F)cc1)Nc1cccc2c(=O)n(CCO)ccc12 [Compound 7] | < 25 µM |  | inhibition at 0.3 µM ([3]; 0.3 μM compound (symbols +)): 26 to 50% |
| O=C(Cc1ccc(Cl)cc1Cl)Nc1cccc2c(=O)n(CCO)ccc12 [Compound 69] | < 25 µM |  | inhibition at 0.3 µM ([3]; 0.3 μM compound (symbols +)): > 76% |
| CC(O)Cn1ccc2c(NC(=O)c3ccc(-c4ccccc4)cc3)cccc2c1=O (stereo not drawn) [Compound 146] |  |  | inhibition at 0.1 µM [3]: 0 to 25% |
| CNC(=O)[C@@H](CO)n1ccc2c(NC(=O)C(C)c3ccc(Cl)cc3)cccc2c1=O (stereo partly drawn) [Compound 261] |  | 51 to 75% |  |
| COc1ccc(OC)c(CC(=O)Nc2cccc3c(=O)n(CCO)ccc23)c1 [Compound 77] |  |  | inhibition at 0.3 µM ([3]; 0.3 μM compound (symbols +)): 0 to 25% |
| COc1ccccc1CC(=O)Nc1cccc2c(=O)n(C(C)CO)ccc12 (stereo not drawn) [Compound 107] |  |  | inhibition at 0.1 µM [3]: 0 to 25% |
| O=C(Cc1ccc(Cl)cc1C(F)(F)F)Nc1cccc2c(=O)n(CCO)ccc12 [Compound 229] |  | 51 to 75% |  |
| C[C@H](C(N)=O)n1ccc2c(NC(=O)Cc3cccc(C#N)c3)cccc2c1=O [Compound 288] |  | 0 to 25% |  |
| C[C@H](C(N)=O)n1ccc2c(NC(=O)Cc3cc(F)c(F)cc3F)cccc2c1=O [Compound 305] |  | > 76% |  |
| Cc1cccc(CCC(=O)Nc2cccc3c(=O)n(CC4(O)CCCCC4)ccc23)c1 [Compound 53] |  |  | inhibition at 0.3 µM ([3]; 0.3 μM compound (symbols +)): 0 to 25% |
| CC(C(=O)Nc1cccc2c(=O)n(CCO)ccc12)c1ccc(Cl)c(C(F)(F)F)c1 (stereo not drawn) [Compound 251] |  | > 76% |  |
| O=C(Cc1cc(C(F)(F)F)ccc1C(F)(F)F)Nc1cccc2c(=O)n(CCO)ccc12 [Compound 70] |  |  | inhibition at 0.3 µM ([3]; 0.3 μM compound (symbols +)): 26 to 50% |
| O=C(Cc1ccc2c(c1)OCCO2)Nc1cccc2c(=O)n(CCO)ccc12 [Compound 63] |  |  | inhibition at 0.3 µM ([3]; 0.3 μM compound (symbols +)): 0 to 25% |
| C[C@H](C(N)=O)n1ccc2c(NC(=O)Cc3ccc(F)c(F)c3F)cccc2c1=O [Compound 379] |  | > 76% |  |
| Cc1ccc(C)c(C(=O)Nc2cccc3c(=O)n(CC(C)O)ccc23)c1 (stereo not drawn) [Compound 142] |  |  | inhibition at 0.1 µM [3]: 0 to 25% |
| Cc1cc(C(=O)Nc2cccc3c(=O)n(CC4(O)CCCCC4)ccc23)ccc1Cl [Compound 17] |  |  | inhibition at 0.3 µM ([3]; 0.3 μM compound (symbols +)): 0 to 25% |
| Cc1cc(Cl)ccc1C(=O)Nc1cccc2c(=O)n(CC(C)O)ccc12 (stereo not drawn) [Compound 169] |  |  | inhibition at 0.1 µM [3]: 0 to 25% |
| COc1cccc(CCC(=O)Nc2cccc3c(=O)n(C(C)CO)ccc23)c1 (stereo not drawn) [Compound 91] |  |  | inhibition at 0.1 µM [3]: 0 to 25% |
